Patent publication US20040023952A1 (priority 2002, published 2004)

Test system: V1 cortical cells
Format: in vivo, rhesus monkeys (Macaca mulatta)
Conditions: for signal-to-noise ratio of cortical cells (response to appropriate stimuli divided by spontaneous discharge rate): FIG. 7; for peak response (maximum visually evoked response) of V1 cortical cells / spontaneous activity of V1 cortical cells: intracortical delivery through microelectrode; for peak response (maximum visually evoked response) of V1 cortical cells: FIG. 5; for spontaneous activity of V1 cortical cells: FIG. 6; for direction selectivity of a representative cortical cell / orientation selectivity of a representative cortical cell / peak response of a representative cortical cell / spontaneous activity of a representative cortical cell: single cell of old monkey, FIG. 10, three minutes after GABA or muscimol application, within five minutes of bicuculline
Description: Extracellular single-neuron recording techniques were used to examine the stimulus selectivities of VI cells in very old rhesus monkeys showing normal optics and retinogeniculate projections. A total of 187 neurons were studied in 4 young rhesus monkeys (Maraca mulatta), and 254 neurons in 4 old rhesus monkeys. Subjects for physiological experiments were abbreviated as OM1-4 (for old monkey 1-4) and YM1-4 (for young monkey 1-4). Retinal data were obtained from one additional young macaque (YM5, Macaca fascicularis). Multiple ophthalmological exams were conducted to ensure optical and retinal health of all subjects prior to testing.
Subjects for this study were four young adult (7-9 year old) and four very old (28-30 year old) female rhesus monkeys (Macaca mullata). […] Thus, the 28-30 year old monkeys were considered old, whereas the 7-9 year old monkeys were at an age considered sexually mature. Retinal control data for FIG. 1 are provided from one additional young female Macaca facsicularis, which was used in previous studies. Onset latency data from YM4 are published. Monkeys were examined ophthalmoscopically, and no apparent optical or retinal problems were detected that would impair visual function. Retinal blood vessels, lens clarity and the maculae all appeared normal. All cells studied had receptive fields between 2 and 5 degrees from the fovea. Monkeys were prepared for electrophysiological recording using standard techniques consistent with Society for Neuroscience and National Institute of Health guidelines.
Subjects were sedated with Ketamine HC1 (Ketalar, Parke-Davis, Morris Plains, N.J.) and then anesthetized with halothane (5%; Halocarton Laboratories, River Edge, N.J.) in a 70:30 mixture of […]. Intravenous and tracheal cannulae were inserted, the animals were placed in a stereotaxic apparatus, and pressure points and incisions were infiltrated with a long-acting anesthetic (2% lidocaine HCI, Copley Pharmaccuticak, Canton, Mass.). A mixture of D-tubocurarine (0.4 mg per kg per hour) and gallamine triethiodide (7 mg per kg per hour) was infused intravenously to induce and maintain paralysis. Animals were ventilated, and anesthesia was maintained with a mixture of nitrous oxide (75%), oxygen (25%) and halothane (0.25-1.0%) as needed.
A small burr hole was made above the striate cortex (V1), and filled with a 4% solution of agar in saline and sealed with wax. The eyes were protected from desiccation with contact lenses; spectacle lenses and artificial pupils were used when needed to focus the eyes on a tangent screen positioned 228 cm from the retina. The locations of the optic discs and foveae were determined repeatedly during the course of each recording session. No visible deterioration in optics occurred during the experimental period (2-5 days).
Extracellular action potentials of isolated cortical cells were recorded with microelectrodes having impedances of 3-5 MΩ. The electrode was advanced using a hydraulic microdrive (David Kopf instruments, Tojunga, Calif.) to precisely position it. The position of the electrode was confirmed by determining the receptive filed positions of the cortical cells at the recording site. A1 V1 cells studied had receptive fields between about 3 and 7 degrees from the fovea.
After placing the microelectrode as in Example 1, visual stimuli were measured using a Tektronix (Beaverton, Oreg.) 608 display driven by a Picasso (Inning Cambridge, Mass.) image synthesizer and a texture/motion generator (Innisfree). The Picasso and texture/motion generator were computer controlled in conjunction with a hardware and software package from Cambridge Electronics Design (Cambridge, England). The center of the display screen was 171 cm from the animal's retina.
The physiological orientation biases and direction biases of cortical cell were studied quantitatively. The orientation of each drifting stimulus presented was orthogonal to its direction of motion. […]

SMILES | signal-to-noise ratio of cortical cells (response to appropriate stimuli divided by spontaneous discharge rate) (old monkeys) | number/proportion of orientation and direction selective cells in area V1 (old monkeys, FIGS. 8 and 9) | peak response (maximum visually evoked response) of V1 cortical cells (old monkeys) | spontaneous activity of V1 cortical cells (old monkeys) | time until effects are seen after drug administration (old monkeys, intracortical delivery, current 15-50 n amp for 1-3 minutes) | direction selectivity of a representative cortical cell | orientation selectivity of a representative cortical cell | peak response of a representative cortical cell | spontaneous activity of a representative cortical cell | time until drug effects wear off after administration ceases (old monkeys, intracortical delivery)
NCCCC(=O)O [GABA, Gamma-aminobutyric acid] | increased signal-to-noise ratios dramatically | very close to what is found in normal young monkeys | reduce the peak responses and spontaneous activity of cortical cells to the normal levels seen in young monkeys | reduce the peak responses and spontaneous activity of cortical cells to the normal levels seen in young monkeys | Three to five minutes | moderate direction selectivity | strong orientation | peak response decreased | decreased as did its spontaneous activity | –
NCc1cc(=O)[nH]o1 [muscimol] | increased signal-to-noise ratios dramatically | – | reduce the peak responses and spontaneous activity of cortical cells to the normal levels seen in young monkeys | reduce the peak responses and spontaneous activity of cortical cells to the normal levels seen in young monkeys | – | very strong direction selectivity | moderate orientation selectivity | decreased peak response | decreased spontaneous activity | Five minutes after the discontinuation
